Biological target: T1, porcine pancreatic α-amylase (Sus scrofa, UniProt P00690)
T1 construct: purchased Megazyme, Inc
T1 sequence (P00690 16-511): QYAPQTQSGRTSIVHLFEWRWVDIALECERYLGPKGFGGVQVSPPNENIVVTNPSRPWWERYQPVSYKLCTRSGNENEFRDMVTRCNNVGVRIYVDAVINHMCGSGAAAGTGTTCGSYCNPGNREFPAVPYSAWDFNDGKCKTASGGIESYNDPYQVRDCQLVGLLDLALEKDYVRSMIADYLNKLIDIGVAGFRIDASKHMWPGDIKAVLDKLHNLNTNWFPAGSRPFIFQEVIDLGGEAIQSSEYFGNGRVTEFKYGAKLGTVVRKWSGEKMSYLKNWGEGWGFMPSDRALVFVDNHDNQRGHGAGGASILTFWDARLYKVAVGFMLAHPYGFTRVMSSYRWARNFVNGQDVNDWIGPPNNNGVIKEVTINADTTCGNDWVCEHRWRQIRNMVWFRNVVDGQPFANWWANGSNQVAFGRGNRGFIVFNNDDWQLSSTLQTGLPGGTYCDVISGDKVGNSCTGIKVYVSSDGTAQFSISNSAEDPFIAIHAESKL
Test: colorimetric starch-iodine assay of amylase-mediated starch hydrolysis
Assay type: biochemical
Settings: read-out: Fraction Inhibited (starch-iodine assay)
Procedure: The effectiveness of GMα (panel A) and GMβ (panel) to inhibit starch hydrolysis (1 mg/ml) mediated by porcine pancreatic α-amylase (1 μM) is shown as a function of the concentration of GMα and GMβ. The Fraction of Reaction Inhibited was calculated using U/ml values determined from the iodine-starch assay as described by (ref), with U/ml=(As62 control−As62 sample)/(As62 starch×20 min×0.1 ml reaction volume), a value that can be interpreted as mg of starch hydrolyzed per minute. The Fraction of “Unfolded” Starch was calculated in the absence of enzyme as A562 taken in the presence of GMα (panel C) and GMβ (panel D) divided by A562 taken in the absence of the GM. General solution conditions are 20 mM potassium phosphate, pH 7, 30° C.;
A standard curve was constructed using 100 μL of 6 concentrations (0-1.0 mg/ml) and 100 μL of soluble starch. A total of 100 μL of 1 mg/ml of soluble starch+/−varying concentrations of GMs were incubated for 20 minutes at 30° C.+/−5 μL enzyme, for a total concentration of 1 μM PPA/well, and the absorbance read at 520 nm.

## C[C@H]1O[C@H](O[C@H]2[C@H](O)[C@@H](O)[C@@H](O[C@H]3[C@H](O)[C@@H](O)C(O)O[C@@H]3CO)O[C@@H]2CO)[C@H](O)[C@@H](O)[C@@H]1N[C@H]1C=C(CO)[C@@H](O)[C@H](O)[C@H]1O (stereo partly shown) [Acarbose, acarbose]
  inhibition at 400 µM: 79%
